Columns and labels:
[1] = test system: normal NK cells expanded with K562-aAPC; assay: drug sensitivity score (DSS) (DSS units); higher = more sensitive; extreme values may be limits of the assay; conditions: 72 h; IL-2 2.5 ng/mL
Protocol: (§1)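 Drug sensitivity and resistance testing on K562-aAPC-expanded normal NK cells: 5 concentrations (10-fold steps over a 10,000-fold range), 72 h at 37 °C, viability by CellTiter-Glo normalised to DMSO and benzethonium chloride controls; DSS from the fitted curve.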

[2] = test system: normal NK cells expanded with K562-aAPC; assay: percent inhibition of viability; higher = more inhibition; conditions: 72 h, IL-2 2.5 ng/mL
Protocol: as §1

[3] = test system: NK-YS (IL-2 2.5 ng/mL); assay: as above; conditions: 72 h
[4] = test system: NKL (IL-2 2.5 ng/mL); assay: as above; conditions: 72 h
[5] = test system: KAI3 (IL-2 2.5 ng/mL); assay: as above; conditions: 72 h
[6] = test system: normal primary NK cells, pool 3 (3 donors) (IL-2 2.5 ng/mL); assay: as above; conditions: 72 h
[7] = test system: SNK-6 (IL-2 2.5 ng/mL); assay: as above; conditions: 72 h
[8] = test system: normal primary NK cells, pool 2 (3 donors) (IL-2 2.5 ng/mL); assay: as above; conditions: 72 h
[9] = test system: normal primary NK cells, pool 1 (3 donors), resting (IL-2 0 ng/mL); assay: as above; conditions: 72 h
[10] = test system: YT (IL-2 2.5 ng/mL); assay: as above; conditions: 72 h
[11] = test system: NK-92 (IL-2 2.5 ng/mL); assay: as above; conditions: 72 h
[12] = test system: DERL-7 (IL-2 2.5 ng/mL); assay: as above; conditions: 72 h
[13] = test system: normal primary NK cells, pool 1 (3 donors) (IL-2 2.5 ng/mL); assay: as above; conditions: 72 h
[14] = test system: KHYG-1 (IL-2 2.5 ng/mL); assay: as above; conditions: 72 h
[15] = test system: IMC-1 (IL-2 20 ng/mL); assay: as above; conditions: 72 h
[16] = test system: NK-YS (IL-2 2.5 ng/mL); assay: drug sensitivity score (DSS) (DSS units); higher = more sensitive; extreme values may be limits of the assay; conditions: 72 h
[17] = test system: NKL (IL-2 2.5 ng/mL); assay: as above; conditions: 72 h
[18] = test system: KAI3 (IL-2 2.5 ng/mL); assay: as above; conditions: 72 h
[19] = test system: normal primary NK cells, pool 3 (3 donors) (IL-2 2.5 ng/mL); assay: as above; conditions: 72 h
[20] = test system: SNK-6 (IL-2 2.5 ng/mL); assay: as above; conditions: 72 h
[21] = test system: normal primary NK cells, pool 2 (3 donors) (IL-2 2.5 ng/mL); assay: as above; conditions: 72 h
[22] = test system: normal primary NK cells, pool 1 (3 donors), resting (IL-2 0 ng/mL); assay: as above; conditions: 72 h
[23] = test system: YT (IL-2 2.5 ng/mL); assay: as above; conditions: 72 h
[24] = test system: NK-92 (IL-2 2.5 ng/mL); assay: as above; conditions: 72 h
[25] = test system: DERL-7 (IL-2 2.5 ng/mL); assay: as above; conditions: 72 h
[26] = test system: normal primary NK cells, pool 1 (3 donors) (IL-2 2.5 ng/mL); assay: as above; conditions: 72 h
[27] = test system: KHYG-1 (IL-2 2.5 ng/mL); assay: as above; conditions: 72 h
[28] = test system: IMC-1 (IL-2 20 ng/mL); assay: as above; conditions: 72 h

O=NN(CCCl)C(=O)NC1CCCCC1 [Lomustine] (max concentration tested 10000 nM)
Conditions | drug sensitivity score
[1] | 0
[16] | 0
[17] | 0
[18] | 0
[19] | 0
[20] | 0
[21] | 0
[22] | 0
[23] | 0
[24] | 0
[25] | 0
[26] | 0
[27] | 0
[28] | 0

percent inhibition of viability [%]
Conditions | 1 nM | 10 nM | 100 nM | 1000 nM | 10000 nM
[2] | -0.77 | -4.05 | -3.71 | -4.93 | -6.08
[3] | -6.33 | -2.26 | -1.76 | 0.49 | 4.09
[4] | -15 | -16.4 | -19.5 | -23.3 | -24.5
[5] | -9.82 | 0.25 | -6.64 | -4.27 | -3.54
[6] | -11.8 | -8.98 | -8.45 | -6.32 | -4.26
[7] | 10.8 | 20.4 | -2.23 | 6.58 | -11
[8] | -12.4 | -5.7 | -9.1 | -11.4 | -2.45
[9] | -9.1 | -11.4 | -22.4 | 13.4 | 3.51
[10] | -3.7 | -2.05 | -4.42 | -2.81 | 0.06
[11] | -9.96 | -19 | -9.06 | -13.7 | -15.8
[12] | -0.56 | -0.17 | -2.85 | -3.2 | -5.37
[13] | -1.98 | -5.39 | -3.98 | -5.42 | -0.06
[14] | -7.65 | -1.52 | -3.58 | -1.68 | 0.4
[15] | -5.94 | -3.37 | -4.39 | -5.66 | -4.09

C[C@@H]1CN(Cc2ccc(F)cc2)[C@@H](C)CN1C(=O)c1cc2c(C(=O)C(=O)N(C)C)cn(C)c2cc1Cl [Talmapimod] (max concentration tested 10000 nM)
Conditions | drug sensitivity score
[1] | 0
[16] | 0.37
[17] | 1.47
[18] | 6.42
[19] | 0
[20] | 0
[21] | 0
[22] | 4.01
[23] | 0.18
[24] | 0
[25] | 0
[26] | 0
[27] | 0
[28] | 0

percent inhibition of viability [%]
Conditions | 1 nM | 10 nM | 100 nM | 1000 nM | 10000 nM
[2] | -9.71 | -4.89 | -9.38 | -4.26 | -10.1
[3] | -5.34 | -2.3 | 1.96 | 6.17 | 14.5
[4] | -6.18 | -3.36 | 7.54 | 9.7 | 22.9
[5] | -4.84 | 8.7 | 21.6 | 21.2 | 32.1
[6] | -3.75 | 4.83 | 4.73 | 0.2 | 1.78
[7] | -0.46 | -0.9 | -3.03 | -23.7 | -10.1
[8] | -0.88 | -7.3 | -3.09 | 1.69 | 0.02
[9] | -0.54 | -6.9 | 17.6 | 15.2 | 37
[10] | -3.64 | -1.4 | 4.73 | 5.29 | 14.3
[11] | -13.6 | -14.2 | -7.08 | -0.77 | 6.94
[12] | -8.76 | 3.34 | -3.64 | 2.18 | -3.8
[13] | -13.6 | -10.8 | -4.95 | -6.75 | 2.92
[14] | -8.74 | -9.48 | -3.07 | -9.07 | -3.04
[15] | -2.4 | -5.13 | -5.16 | -10.4 | 0.72

COc1ccccc1S(=O)(=O)Nc1ccc2c(c1)CN(C)C(=O)N2 [PFI-1] (max concentration tested 10000 nM)
Conditions | drug sensitivity score
[1] | 4.03
[16] | 7.15
[17] | 8.04
[18] | 3.39
[19] | 2.17
[20] | 3.9
[21] | 4.3
[22] | 0.99
[23] | 3.74
[24] | 0.06
[25] | 9.94
[26] | 1.98
[27] | 8.09
[28] | 2.96

percent inhibition of viability [%]
Conditions | 1 nM | 10 nM | 100 nM | 1000 nM | 10000 nM
[2] | 1.38 | -2.34 | 0.83 | 10.4 | 45.7
[3] | -6.14 | -3.35 | 2.77 | 24.8 | 70
[4] | -16 | -14.6 | -8.15 | 32 | 70.4
[5] | -2.2 | 1.8 | -7.46 | 5.35 | 48
[6] | -2.26 | -5.87 | 0.68 | 4.06 | 32.9
[7] | -3.16 | -6.59 | 7.82 | 7.89 | 48.9
[8] | -9.32 | -3.5 | -1.83 | 9.71 | 50.9
[9] | -7.18 | 7.82 | -0.65 | -5.17 | 29.6
[10] | 1.99 | 0.44 | -0.45 | 5.52 | 53.1
[11] | -6.34 | 6.35 | -0.51 | -18.3 | 14.6
[12] | -2.29 | 2.86 | 9.32 | 41.8 | 91.8
[13] | 1.67 | -1.14 | -0.56 | 0.29 | 39.4
[14] | -2.18 | -2.43 | -0.21 | 19.9 | 89.2
[15] | -2.65 | -6.11 | -1.36 | 1.44 | 52.3

Cc1c(NC(=O)OC[C@@H]2COCCN2)cn2ncnc(Nc3ccc4c(cnn4Cc4cccc(F)c4)c3)c12 (max concentration tested 10000 nM)
Conditions | drug sensitivity score
[1] | 2.22
[16] | 2.25
[17] | 3.06
[18] | 3.56
[19] | 2.07
[20] | 0.86
[21] | 3.16
[22] | 2.48
[23] | 2.8
[24] | 7.04
[25] | 3.21
[26] | 1.06
[27] | 5.75
[28] | 2.97

percent inhibition of viability [%]
Conditions | 1 nM | 10 nM | 100 nM | 1000 nM | 10000 nM
[2] | 6.16 | 1.61 | -2.01 | 5.74 | 30.1
[3] | 1.47 | 0.48 | 3.03 | 2.38 | 38.8
[4] | -10.7 | 1.23 | -8.56 | 0.45 | 55.9
[5] | 1.51 | 4.45 | 5.56 | -0.23 | 65.3
[6] | -5.86 | 2.09 | 3.41 | -2.09 | 44
[7] | -6.28 | -7.55 | -9.76 | -27.8 | 33.1
[8] | -13 | -2.17 | -2.11 | 0.64 | 57.2
[9] | 4.93 | -4.06 | 4.13 | -12.6 | 58.4
[10] | 2.59 | 1.59 | 4.74 | 2.33 | 47.5
[11] | -5.71 | -0.55 | 7.56 | 7.66 | 105
[12] | -2.53 | -0.41 | -0.2 | 2.93 | 52.5
[13] | 1.48 | -6.08 | -9.4 | -15 | 34.3
[14] | 4.55 | 7.44 | 7.32 | 8.8 | 77.5
[15] | -5.26 | -0.97 | 0.8 | 4.51 | 43.6

CC[C@@]1(O)C(=O)OCc2c1cc1n(c2=O)Cc2cc3c(CN(C)C)c(O)ccc3nc2-1 [Topotecan] (max concentration tested 10000 nM)
Conditions | drug sensitivity score
[1] | 18.3
[16] | 29.2
[17] | 29.9
[18] | 28.5
[19] | 9.14
[20] | 29
[21] | 8.28
[22] | 4.46
[23] | 27.7
[24] | 32.8
[25] | 26.9
[26] | 10.3
[27] | 30.1
[28] | 30.6

percent inhibition of viability [%]
Conditions | 1 nM | 10 nM | 100 nM | 1000 nM | 10000 nM
[2] | -4.37 | 0.95 | 51.7 | 58.8 | 99.9
[3] | -4.31 | 2.83 | 91.2 | 94.4 | 104
[4] | -16.1 | 0.22 | 95.8 | 101 | 97.5
[5] | -7.96 | 6.65 | 82.9 | 69.8 | 100
[6] | -3.05 | 6.63 | 20.6 | 31.7 | 84.1
[7] | -7.26 | -5.12 | 93 | 96.6 | 99.4
[8] | -7.25 | 5.21 | 15.2 | 31.4 | 85.2
[9] | -1.44 | 14.8 | 4.57 | 2.84 | 73.8
[10] | -6.41 | 1.19 | 83.4 | 102 | 105
[11] | -7.93 | 14.4 | 98 | 102 | 105
[12] | -5.89 | 8.74 | 69.9 | 96.4 | 100
[13] | -0.98 | 18.9 | 12.2 | 42.5 | 84.4
[14] | -8.76 | -0.99 | 98 | 104 | 104
[15] | -3.93 | 2.9 | 98.1 | 99.6 | 100

— the supplement of paper PMC5908809
